# From paper PMC9545129 (Chemmedchem, 2022)
# What was measured:
# LAT1 = conditions: cited from earlier work
# LAT1 (SLC7A5) = LAT1 (SLC7A5) (Homo sapiens, UniProt Q01650); assay: [3H]-L-leucine efflux assay in preloaded HT-29 cells; type: cell-based; conditions: concentration not stated
# LAT1 (SLC7A5), sequence (Q01650 whole entry): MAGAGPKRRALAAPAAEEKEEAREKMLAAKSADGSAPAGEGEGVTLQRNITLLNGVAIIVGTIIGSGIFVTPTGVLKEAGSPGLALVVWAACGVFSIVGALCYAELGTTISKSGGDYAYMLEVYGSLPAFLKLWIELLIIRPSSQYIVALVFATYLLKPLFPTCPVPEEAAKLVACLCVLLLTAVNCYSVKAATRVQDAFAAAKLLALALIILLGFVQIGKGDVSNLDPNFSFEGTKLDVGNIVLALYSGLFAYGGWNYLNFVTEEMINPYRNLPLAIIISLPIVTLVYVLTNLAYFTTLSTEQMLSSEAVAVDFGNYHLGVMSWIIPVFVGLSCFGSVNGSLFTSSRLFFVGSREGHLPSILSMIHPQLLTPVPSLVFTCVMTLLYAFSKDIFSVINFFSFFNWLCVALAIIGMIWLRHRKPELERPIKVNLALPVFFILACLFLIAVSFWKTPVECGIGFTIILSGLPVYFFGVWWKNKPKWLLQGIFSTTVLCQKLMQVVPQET
# LAT1 (SLC7A5), sequence (P08195 102-630 partner): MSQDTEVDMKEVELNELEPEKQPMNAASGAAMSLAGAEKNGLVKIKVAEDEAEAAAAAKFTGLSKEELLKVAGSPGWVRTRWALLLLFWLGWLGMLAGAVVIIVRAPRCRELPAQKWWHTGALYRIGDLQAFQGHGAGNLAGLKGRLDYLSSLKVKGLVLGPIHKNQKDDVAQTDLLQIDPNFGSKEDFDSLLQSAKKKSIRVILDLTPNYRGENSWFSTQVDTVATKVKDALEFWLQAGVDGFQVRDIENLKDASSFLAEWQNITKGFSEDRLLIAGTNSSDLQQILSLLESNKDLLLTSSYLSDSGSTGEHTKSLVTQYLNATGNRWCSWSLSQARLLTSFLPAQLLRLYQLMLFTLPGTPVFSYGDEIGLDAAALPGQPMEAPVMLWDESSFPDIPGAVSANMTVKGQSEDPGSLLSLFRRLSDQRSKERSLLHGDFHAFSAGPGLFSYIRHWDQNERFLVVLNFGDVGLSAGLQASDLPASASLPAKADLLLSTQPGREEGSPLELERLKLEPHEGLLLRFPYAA
[3H]-L-leucine efflux from preloaded HT-29 cells / substrate for LAT1-mediated transport (LAT1 (SLC7A5)),Structure (SMILES),LAT1 substrate properties (LAT1)
–,N[C@@H](Cc1c[nH]c2ccc(OCCF)cc12)C(=O)O [5‐(2‐fluoroethoxy)‐L‐tryptophan],exhibit LAT1 substrate properties
elicited clear [^3H]‐L‐leucine efflux,"N[C@@H](Cc1c[nH]c2ccccc12)C(=O)O [L‐Trp, L‐tryptophan]",–
